This note sets out measurements from patent publication US7439359B2, “Small molecule compositions for binding to hsp90” (Sloan-Kettering Institute for Cancer Research, priority 2000, dated 2008).

Test [1] deals with MDA-MB-468. In words: Growth inhibition, sulforhodamine B assay. In kind it is cell-based, human. The note with it: for IC50: unit inferred. The source says: (§1) Protein Assays. […] Antiproliferative index. […] Tissue Culture IC50 Studies. […] Her2 degradation. Total Protein Assays. […] Binding studies. Solid phase competition assays.
On the technique in general: In SRB staining, fixed cells bind dye roughly in proportion to their protein.

Test [2] relates to MCF-7. Briefly: Growth inhibition, sulforhodamine B assay. The test is classed as cell-based, human. The note with it: unit inferred.
From the text: as §1

Test [3] concerns the target Hsp90alpha (Homo sapiens, UniProt P07900). In words: Solid phase competition assay with GM-beads, Hsp90 alpha immunoblot. In kind it is binding. Set-up: purchased Stressgen SPP-770. The note with it: for EC50: competition with immobilized GM, unit inferred, read-out: EC50 Hsp90 α. The protocol: (§2) A test was also designed which allows identification of compounds which interact differentially with Hsp90-alpha and Hsp90-beta. […] An Hsp90 protein preparation containing both the alpha and the beta form is incubated with the support in the presence or absence of a compound to be evaluated. […] After washing, the material bound to the support is eluted and the eluate is separated on an SDS/PAGE gel and visualized by immunoblotting with anti-Hsp90-alpha and anti-Hsp90-beta to determine the amount of material bound. Alternatively, if quantitative amounts of the Hsp90 protein preparation or known ratios of alpha to beta forms of Hsp90 are used in the first instance, the unbound material can be analyzed by a similar technique.
as §1

For test [4], the target named is T1, Hsp90 beta (Homo sapiens, UniProt P08238).
T1 construct: purchased Stressgen SPP-770
In words: Solid phase competition assay with GM-beads, Hsp90 beta immunoblot. The test is classed as binding. The note with it: for EC50: competition with immobilized GM, unit inferred, read-out: EC50 Hsp90 β. The protocol: as §2, §1
(In general: A western blot detects proteins with antibodies after separation by electrophoresis.)

For test [5], the system named is Her2. Briefly: Her2 total protein degradation in MCF-7 cells (immunoblot).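 Note: Her2 levels judged by SDS-PAGE western blot of whole-cell lysates probed with anti-Her2 antibody, compared with DMSO vehicle-treated cells.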
Description: For assays on protein levels, cells were grown to 60-70% confluence exposed to drugs or DMSO vehicle for the indicated time periods. Lysates were prepared using 50 mM Tris pH=7.4, 2% SDS and 10% glycerol lysis buffer. Protein concentration was determined using the BCA kit (Pierce Chemical Co.), according to the manufacturers instructions. Clarified protein lysates (20-50 mg) were electrophoretically resolved on denaturing SDS-PAGE, transferred to nitrocellulose and probed with the following primary antibodies: anti-Her2 (C-18), -Her3 (C-17), -Raf-1, -cyclin D1, -Rb (C-15) (Santa Cruz), anti-hsp90, -hsp70, -ER (Stressgen), anti-Trap-1 (MSK81), anti-b-actin, -tubulin (Sigma), anti-PI3K (p85) (Upstate Biotechnologies).
After 24 hours, the cells were lysed and the amount of Her2 in the cells was evaluated.
Protein Assays. Cells were grown to 60-70% confluence and exposed to drugs or DMSO vehicle for the indicated time periods. Lysates were prepared using 50 mM Tris pH 7.4, 2% SDS and 10% glycerol lysis buffer. Protein concentration was determined using the BCA kit (Pierce Chemical Co.), according to the manufacturers instructions. Clarified protein lysates (20-50 mg) were electrophoretically resolved on denaturing SDS-PAGE, transferred to nitrocellulose and probed with the following primary antibodies: anti-Her2 (C-18), -Her3 (C-17), -Raf-1, -cyclin D1, -Rb (C-15) (Santa Cruz Biotechnology), anti-hsp90, -hsp70 (Stressgen) anti-Trap-1 (MSK81), anti-b-actin, -tubulin (Sigma), ER, anti-PI3K (p85) (Upstate Biotechnologies). […] Her2 degradation. Total Protein Assays. Cells were grown to 60-70% confluence and exposed to drugs or DMSO vehicle for the indicated time periods. Lysates were prepared using 50 mM Tris pH 7.4, 2% SDS and 10% glycerol lysis buffer. Protein concentration was determined using the BCA kit (Pierce Chemical Co.), according to the manufacturers instructions. Clarified protein lysates (20-50 μg) were electrophoretically resolved on denaturing SDS-PAGE, transferred to nitrocellulose and probed with the anti-Her2 primary antibody (C-18) (Santa Cruz Biotechnology).
Test [6] deals with BT-474. In words: Growth inhibition, sulforhodamine B assay. In kind it is cell-based. Particulars: Homo sapiens, 72 hours, unit inferred.
From the text: as §1

[7] abbreviates: Homo sapiens, MDA-MB-468, 72 hours.
Setting [8] is: Homo sapiens, MCF7, read-out: IC50 Her2/MCF-7.
The mark [9] stands for this setting: read-out: IC50 Her2/MCF-7, Her2 total protein degradation in MCF-7, unit inferred.

Each structure is given as a SMILES string. Like-named read-outs stand apart in the source and are kept apart here. Some results are limits rather than exact numbers.

T1 sequence (P08238 whole entry): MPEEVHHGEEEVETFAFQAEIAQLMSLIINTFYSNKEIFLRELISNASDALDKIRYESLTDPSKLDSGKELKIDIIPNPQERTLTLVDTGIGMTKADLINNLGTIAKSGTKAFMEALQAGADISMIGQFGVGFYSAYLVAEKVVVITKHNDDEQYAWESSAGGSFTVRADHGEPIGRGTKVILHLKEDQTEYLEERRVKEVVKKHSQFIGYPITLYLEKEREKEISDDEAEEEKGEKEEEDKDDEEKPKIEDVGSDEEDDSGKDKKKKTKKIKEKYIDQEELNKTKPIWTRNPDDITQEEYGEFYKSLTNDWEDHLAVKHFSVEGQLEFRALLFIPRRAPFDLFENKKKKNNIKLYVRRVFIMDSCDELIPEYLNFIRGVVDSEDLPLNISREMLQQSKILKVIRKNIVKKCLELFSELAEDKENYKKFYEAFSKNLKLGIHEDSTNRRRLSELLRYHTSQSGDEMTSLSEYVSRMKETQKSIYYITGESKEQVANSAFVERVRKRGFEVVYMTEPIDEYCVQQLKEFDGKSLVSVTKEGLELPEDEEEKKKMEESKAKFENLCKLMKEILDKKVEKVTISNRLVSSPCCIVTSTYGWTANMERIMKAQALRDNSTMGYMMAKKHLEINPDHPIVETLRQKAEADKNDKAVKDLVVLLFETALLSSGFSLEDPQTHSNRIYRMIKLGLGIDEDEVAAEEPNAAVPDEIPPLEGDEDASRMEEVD

For `CC=CCn1c(Cc2cc(OC)c(OC)c(OC)c2)nc2c(N)ncnc21` (mixture of isomers) [PU11], the results for the IC50 in test [1] (72 hours) and in test [2] (72 hours) were 66 µM and 51 µM, respectively.
As to `CCCCn1c(Oc2cc(OC)c(OC)c(OC)c2)nc2c(N)ncnc21` [Compound 69, 9-Butyl-8-(3,4,5-trimethoxy-phenoxy)-9H-purin-6-ylamine], the “binding to hsp 90-alpha” value in test [3] is listed as “no detectable binding”. Further, the “binding to hsp 90-beta” value in test [4] was “weak binding”.
The term EC50 denotes the midpoint of the concentration-response curve. Regarding `CCCCn1c(Cc2cc(OC)c(OC)c(OC)c2)nc2c(N)nc(F)nc21` [PU3F, 2-Fluoro-9-butyl-8-(3,4,5-trimethoxy-benzyl)-9H-purin-6-ylamine], the EC50 in test [3] worked out at 6 µM; in test [4] it was 3.5 µM. Also, the IC50 in test [1] (setting [7]) was 30 µM; in test [2] (Homo sapiens, MCF7, 72 hours) it was 24 µM; in test [5] (setting [8]), 25 µM; in test [6], 29 µM.
On to `CCCCn1c(Cc2c(Br)c(OC)c(OC)c(OC)c2Br)nc2c(N)ncnc21` [PU3PhBr2, 9-butyl-8-(2,6-dibromo-3,4,5-trimethoxy-benzyl)-9H-purin-6-ylamine], for which the EC50 in test [3] and in test [4] was greater than 100 µM throughout. In addition, the IC50 in test [1] (setting [7]) was 21 µM; in test [2] (Homo sapiens, MCF7, 72 hours), 30 µM; in test [5] (setting [8]) it was greater than 100 µM.
With `CCCCn1c(Cc2cc(OC)c(OC)c(OC)c2Br)nc2c(N)ncnc21` [PU3PhBr, 9-butyl-8-(2-bromo-3,4,5-trimethoxy-benzyl)-9H-purin-6-ylamine], the values for the EC50 in test [3] and in test [4] were 35.3 µM and 11.7 µM, respectively. Besides, the “IC50 MDA-468” value in test [1] (72 hours, unit not given) is recorded as “INSOL”. Moreover, the IC50 in test [2] (Homo sapiens, MCF7, 72 hours) was found to be 25 µM; in test [5] (setting [8]) it was 50 µM; in test [6], 60 µM.
As to `CCCCn1c(Cc2cc(OC)c(OC)c(OC)c2Cl)nc2c(N)ncnc21` [PU3PhCl, 9-butyl-8-(2-chloro-3,4,5-trimethoxy-benzyl)-9H-purin-6-ylamine], the EC50 in test [3] is 18.6 µM; in test [4], 4.6 µM. Also, the IC50 in test [1] (setting [7]) turned out to be 36 µM; in test [2] (Homo sapiens, MCF7, 72 hours), 19 µM; in test [5] (setting [8]) it was 25 µM; in test [6], 30 µM.
In the case of `CC/C=C\Cn1c(Cc2cc(OC)c(OC)c(OC)c2)nc2c(N)ncnc21` [PU7], the values for the EC50 in test [3] and in test [4] were 17.6 µM and 75 µM, respectively. In addition, the IC50 in test [1] (72 hours) was determined as 80 µM; in test [2] (72 hours) it was 64 µM; in test [5] (setting [9]), 70 µM.
Consider `C=CCCn1c(Cc2cc(OC)c(OC)c(OC)c2)nc2c(N)nc(F)nc21` [PU8F, 2-Fluoro-9-but-3-enyl-8-(3,4,5-trimethoxy-benzyl)-9H-purin-6-ylamine], for which the EC50 in test [3] is 5 µM; in test [4], 9.8 µM. For the same compound, the IC50 in test [1] (setting [7]) was 25 µM; in test [2] (Homo sapiens, MCF7, 72 hours), 33 µM; in test [5] (setting [8]), 30 µM; in test [6], 35 µM.
For `C=CCCn1c(Cc2cc(OC)c(OC)c(OC)c2)nc2c(N)ncnc21` [PU8], the EC50 in test [3] is 4 µM; in test [4], 10.6 µM. Further, the IC50 in test [1] (72 hours) is 73 µM; in test [2] (72 hours), 41 µM; in test [5] (setting [9]), 30 µM.
With `COc1cc(Cc2nc3c(N)ncnc3n2CCCC(C)C)cc(OC)c1OC` [PU9], the EC50 in test [3] came out at 28 µM; in test [4], 114 µM. For the same compound, the IC50 in test [1] (72 hours) is 85 µM; in test [2] (72 hours), 69 µM.
With `COc1cc(Cc2nc3c(N)ncnc3n2C)cc(OC)c1OC` [PU13], the results for the IC50 in test [1] (72 hours) and in test [2] (72 hours) were 75 µM and 70 µM, respectively.
As for `CCC(CC)Cn1c(Cc2cc(OC)c(OC)c(OC)c2)nc2c(N)ncnc21` [PU14], the values for the EC50 in test [3] and in test [4] were 62.3 µM and 52.1 µM, respectively. For the same compound, the IC50 in test [1] (72 hours) was 130 µM; in test [2] (72 hours), 160 µM; in test [5] (setting [9]) it was greater than 100 µM.
On the same counts, the results for `COc1cc(Cc2nc3c(N)ncnc3n2CC2CC2)cc(OC)c1OC` [PU15] are 12 µM, 16.2 µM, 70 µM, 75 µM and 70 µM.
As to `COc1cc(Cc2nc3c(N)nc(F)nc3n2CC2CCC2)cc(OC)c1OC` [PU16F, 2-Fluoro-9-cyclobutylmethyl-8-(3,4,5-trimethoxy-benzyl)-9H-purin-6-ylamine], the figures for the concentration giving a half-maximal response (EC50) in test [3] and in test [4] were 30.7 µM and 9.2 µM, respectively. In addition, the IC50 is 21 µM in test [1] (setting [7]); 41 µM in test [2] (Homo sapiens, MCF7, 72 hours); 40 µM in test [5] (setting [8]); 31 µM in test [6].
As to `COc1cc(Cc2nc3c(N)ncnc3n2CC2CCC2)cc(OC)c1OC` [PU16], the figures for the EC50 in test [3] and in test [4] were 17 µM and 32 µM, respectively. Further, the IC50 in test [1] (72 hours) came to 68 µM; in test [2] (72 hours), 46 µM; in test [5] (setting [9]), 60 µM.
`COc1cc(Cc2nc3c(N)nc(F)nc3n2CC2CCCO2)cc(OC)c1OC` (stereo not shown) [PU20F, 2-Fluoro-9-(tetrahydrofuran-2-ylmethyl)-8-(3,4,5-trimethoxy-benzyl)-9H-purin-6-ylamine]: the EC50 was found to be 2.3 µM in test [3] and 6.8 µM in test [4]. Further, the IC50 in test [1] (setting [7]) was determined as 21 µM; in test [2] (Homo sapiens, MCF7, 72 hours), 23 µM; in test [5] (setting [8]), 20 µM; in test [6], 25 µM.
In the case of `COc1cc(Cc2nc3c(N)ncnc3n2CC2CCCO2)cc(OC)c1OC` (stereo not shown) [PU20], the EC50 amounted to 4.4 µM in test [3] and 3.4 µM in test [4]. Further, the IC50 in test [1] (setting [7]) turned out to be 80 µM; in test [2] (Homo sapiens, MCF7, 72 hours), 92 µM; in test [5] (setting [8]) it was 70 µM.
With `CCCCCn1c(Cc2cc(OC)c(OC)c(OC)c2)nc2c(N)nc(F)nc21` [PU21F, 2-Fluoro-9-pentyl-8-(3,4,5-trimethoxy-benzyl)-9H-purin-6-ylamine], the figures for the EC50 in test [3] and in test [4] were 22 µM and 8.9 µM, respectively. For the same compound, the IC50 came out at 19 µM in test [1] (setting [7]); 36 µM in test [2] (Homo sapiens, MCF7, 72 hours); 35 µM in test [5] (setting [8]); 43 µM in test [6].
For `CCCCCn1c(Cc2cc(OC)c(OC)c(OC)c2)nc2c(N)ncnc21` [PU21], the EC50 turned out to be 22.5 µM in test [3] and 11.8 µM in test [4]. Besides, the IC50 in test [1] (setting [7]) is 73 µM; in test [2] (Homo sapiens, MCF7, 72 hours), 62 µM; in test [5] (setting [8]), 50 µM.
Consider `CCn1c(Cc2cc(OC)c(OC)c(OC)c2)nc2c(N)ncnc21` [PU22], for which the IC50 was 118 µM in test [1] (72 hours) and 80 µM in test [2] (72 hours).
Take `CC/C=C/Cn1c(Cc2cc(OC)c(OC)c(OC)c2)nc2c(N)ncnc21` [PU23]: the figures for the EC50 in test [3] and in test [4] were 13.3 µM and 9.5 µM, respectively. The IC50 in test [1] (72 hours) came out at 55 µM; in test [2] (72 hours) it was 47 µM; in test [5] (setting [9]) it was 50 µM.
For `C#CCCCn1c(Cc2cc(OC)c(OC)c(OC)c2)nc2c(N)ncnc21` [PU24], the EC50 amounted to 2.6 µM in test [3] and 1.5 µM in test [4]. The IC50 worked out at 41 µM in test [1] (setting [7]); 24 µM in test [2] (Homo sapiens, MCF7, 72 hours); 20 µM in test [5] (setting [8]).
Take `COc1cc(Cc2nc3c(N)ncnc3n2CC(OC)OC)cc(OC)c1OC` [PU25]: the IC50 in test [2] (72 hours) is 82 µM.
With `CCC(C)Cn1c(Cc2cc(OC)c(OC)c(OC)c2)nc2c(N)ncnc21` (stereo not shown) [PU26], the EC50 in test [3] amounted to 25.3 µM; in test [4] it was 15.7 µM. Besides, the IC50 in test [1] (72 hours) amounted to 71 µM; in test [2] (72 hours), 62 µM; in test [5] (setting [9]) it was 70 µM.
Regarding `COc1cc(Cc2nc3c(N)nc(F)nc3n2CCOC(C)C)cc(OC)c1OC` [PU29F, 2-Fluoro-9-(2-isopropoxy-ethyl)-8-(3,4,5-trimethoxy-benzyl)-9H-purin-6-ylamine], the EC50 worked out at 2 µM in test [3] and 1.3 µM in test [4]. For the same compound, the IC50 in test [1] (setting [7]) was determined as 16 µM; in test [2] (Homo sapiens, MCF7, 72 hours) it was 16 µM; in test [5] (setting [8]) it was 15 µM.
With `COc1cc(Cc2nc3c(N)ncnc3n2CCOC(C)C)cc(OC)c1OC` [PU29], the figures for the EC50 in test [3] and in test [4] were 1.4 µM and 1.7 µM, respectively. The IC50 amounted to 72 µM in test [1] (72 hours), 39 µM in test [2] (72 hours) and 45 µM in test [5] (setting [9]).
Take `COc1cc(Cc2nc3c(N)ncnc3n2CC2(C)CC2)cc(OC)c1OC` [PU30]: the EC50 in test [3] was 111 µM; in test [4], 47.8 µM. In addition, the figures for the IC50 in test [2] (72 hours) and in test [5] (setting [9]) were 111 µM and 120 µM, respectively.
In the case of `COc1cc(Cc2nc3c(N)ncnc3n2CC(C)C)cc(OC)c1OC` [PU41], the EC50 in test [3] came out at 16.6 µM; in test [4], 20.4 µM. In addition, the IC50 was found to be 70 µM in test [1] (72 hours), 98 µM in test [2] (72 hours) and 100 µM in test [5] (setting [9]).
As to `CCCn1c(Cc2cc(OC)c(OC)c(OC)c2)nc2c(N)ncnc21` [PU43], the EC50 came out at 6.6 µM in test [3] and 10.8 µM in test [4]. For the same compound, the IC50 came to 54 µM in test [1] (72 hours), 47 µM in test [2] (72 hours) and 50 µM in test [5] (setting [9]).
On the same counts, the results for `COCCn1c(Cc2cc(OC)c(OC)c(OC)c2)nc2c(N)ncnc21` [PU44] are 4.1 µM, 12.4 µM, 79 µM, 65 µM and 85 µM.
